Tests used:
Format in all cases: cell-based
[1] = molecular target: T1, human FLAG-EP2 (Homo sapiens, UniProt P43116); assay: PGE2 release by ELISA in HEK 293 cells stably expressing EP2; conditions: HEK 293 EP2 cells; 6 hours; butaprost 10 μM, AH13205 10 μM, PGN9856i 100 nM; FIG. 4
T1 construct: FLAG; expressed in transfected cells
Protocol: COX-2 is an inflammatory mediator that drives PGE2 production. The inventors had previously shown EP2-dependent COX-2 release to be downstream of Ca2+ release in primary human myometrium and that 6-hour agonist treatment is necessary for increasing COX-2 levels and PGE2 secretion (Kandola et al, 2014). HEK 293 cells stably expressing human FLAG-EP2 were stimulated for 6 hours with an EP2 agonist (butaprost 10 μM, AH13205 10 μM or PGN9856i 100 nM) or DMSO. 1 mL media was collected from COX-2 experiments and immediately frozen at −80 degrees Celsius. […]

[2] = molecular target: T2, EP2 (Homo sapiens, UniProt P43116); assay: PGE2 release in myometrial cells with/without oxytocin pre-treatment; conditions: for effect of OT pre-treatment on ligand-induced PGE2 release: OT 1 hour, 100 nM, then ligand 6 hours, butaprost 10 μM, PGN9856i 100 nM, FIG. 12
T2 construct: primary human myocytes cultured from term pregnant, non-labouring, myometrium; endogenous in cells; host or cells: primary human myometrial cells (myocytes) cultured from pregnant myometrium
T2 sequence (P43116 whole entry): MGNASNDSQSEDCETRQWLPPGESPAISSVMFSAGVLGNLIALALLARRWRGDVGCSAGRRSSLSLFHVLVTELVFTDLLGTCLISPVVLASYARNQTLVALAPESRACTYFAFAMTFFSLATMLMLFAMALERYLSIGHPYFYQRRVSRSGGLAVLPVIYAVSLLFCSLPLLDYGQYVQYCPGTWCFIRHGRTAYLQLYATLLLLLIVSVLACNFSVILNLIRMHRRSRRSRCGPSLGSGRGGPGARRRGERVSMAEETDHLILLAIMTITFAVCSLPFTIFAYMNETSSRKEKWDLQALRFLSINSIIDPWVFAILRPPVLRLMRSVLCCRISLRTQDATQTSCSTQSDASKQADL
Protocol: Myometrial cells stimulated with either DMSO, butaprost (10 μM), AH13205 (10 μM) or PGN9856i (100 nM) for 6 hours, with/without OT pre-treatment (1 hour, 100 nM). Tissue culture media collected and used for ELISA. PGE2 concentrations normalised to butaprost. Data shown as mean±SEM from at least 3 independent experiments. One-way ANOVA with Dunnett's multiple comparison post-hoc test. One-sample t-test: *p<0.05.
Myometrial cells stimulated with DMSO or PGN9856i (100 nM) for 6 hours, with/without OT pre-treatment (1 hour, 100 nM). Tissue culture media collected and used for ELISA. PGE2 concentrations normalised to vehicle. Data shown as mean±SEM from at least 3 independent experiments. Unpaired t-test: *p<0.05.
Myometrial cells were treated for 6-hours with EP2 agonist (butaprost 10 μM, AH13205 10 μM or PGN9856i 100 nM) or DMSO with/without 1-hour OT (100 nM) pre-treatment. 1 mL media was collected from COX-2 experiments and immediately frozen at −80 degrees Celsius. Samples were defrosted at room temperature and vortexed before quantification of IL-6 concentrations via ELISA as per manufacturer's instructions (Enzo Lifesciences).

[3] = molecular target: T2, EP2; assay: cAMP in non-labouring myometrial cells with/without oxytocin pre-treatment; conditions: OT pre-treatment 1 hour, 100 nM; butaprost 10 μM, AH13205 10 μM, PGN9856i 100 nM; FIG. 10
Protocol: Myometrial cells with/without oxytocin (OT) pre-treatment (1 hour, 100 nM) were treated with IBMX (5 minutes, 0.5 mM) before 1 minute stimulation with IBMX with/without either DMSO, butaprost (10 μM), AH13205 (10 μM) or PGN9856i (100 nM). cAMP concentrations were normalised to protein. Each patient's data normalised to butaprost response and shown as mean±SEM, n=6. One-sample t-test: #p<0.05. ##p<0.01. One-way ANOVA with Sidak's multiple comparison post-hoc test: **p<0.01.
Confluent myometrial cells were treated with/without OT (100 nM) for 1 hour before 3 PBS washes and the addition of […] IBMX (3-isobutyl-1-methylxanthine) in PBS for 5 minutes at 37° C. This was exchanged for 0.5 μM IBMX in PBS plus either DMSO, butaprost (10 μM), AH13205 (10 μM) or PGN9856i (100 nM) for […]. Cells were lysed in Cisbio cAMP lysis buffer with 0.2% TritonX-100 and centrifuged for 15 minutes at 16,000 g. Lysates were normalized to protein concentration determined by Coomassie (Bradford) Protein Assay Kit and analysed as per manufacturers' protocol (Cisbio Gαs dynamic assay) using a PHERAstar FSX.

[4] = molecular target: T2, EP2; assay: COX-2 protein by western blot in myometrial cells from different labouring groups; conditions: butaprost 10 μM, 6 hours
Protocol: L=non-labouring, L+E=early stage spontaneous labour, L+L=late stage spontaneous labour, L+SE=early stage induced labour, L+SL=late stage induced labour. (A) COX-2 protein (70 kB) determined by western blot and normalised to GAPDH protein (38 kB) in different labouring groups following 6 hour butaprost (10 μM) stimulation. Data shown as mean±SEM, n=5. Groups compared using one-way ANOVA with Dunnett's multiple comparison post-hoc test: *p<0.05. (B) Representative western blot for FIG. 9A.
Myometrial cells taken from women in different labouring groups were treated for 6-hours with butaprost. Confluent myometrial cells were lysed in RIPA buffer containing 1% Triton x-100, 1% Sodium deoxycholate, 0.1% SDS, 150 mM NaCl, 10 mM Tris, 1 mM EDTA plus 1 mM sodium orthovanadate and one Pierce EDTA-Free protease inhibitor mini tablet. 20-40 μg of lysate as determined via Bradford assay plus Laemmli buffer (0.5M pH 6.8 Tris, 10% SDS, 1% Bromophenol blue, 2% B-ME, 20% Glycerol) were separated with 1×SDS running buffer at 140V on SDS-PAGE gels polymerized with TEMED and ammonium persulfate: separating gel (40% poly, 1M pH 8.8 Tris, 10% SDS), […] (40% poly, 1M Tris (pH 6.8), 10% SDS). Proteins were transferred onto nitrocellulose membranes before blocking in 5% Milk TBS-T for 30 minutes and incubated overnight at 4° C. with primary antibody and blocking buffer (1:1000). Membranes were then incubated in TBS-T with appropriate secondary antibody for 1-3 hours (1:2000) before signal detection using HRP substrate and chemiluminescent imager (ImageQuant LAS 4000).

T1 sequence (P43116 whole entry): as above

SMILES | PGE2 levels [1] | effect of OT pre-treatment on ligand-induced PGE2 release [2] | effect on OT-mediated PGE2 release ([2]; myometrial cells treated with OT (100 nM, 1 hour), then PGN9856i 100 nM for 6 hours, FIG. 13) | effect of OTR activation on ligand's ability to increase intracellular cAMP [3] | agonist-induced COX-2 in early stage labouring groups ([4]; all early stage labouring groups) | agonist-induced COX-2 increase in late stage labouring groups ([4]; either late stage labouring group) | agonist-induced increases in COX-2 across groups ([4]; non-labouring and labouring groups, normalised to GAPDH)
CC(C)OC(=O)COc1cccc(NC(=O)c2cc(-c3cccc(F)c3)ccc2F)c1 [PGN9856i, propan-2-yl 2-(3-{3′,4-difluoro-[1,1′-biphenyl]-3-amido}phenoxy)acetate] | unable to increase PGE2 levels over basal levels | unchanged by OT pre-treatment | significantly reduce OT-mediated PGE2 release | significantly reduced |  |  | 
CCCC1([C@H](O)C/C=C/[C@H]2[C@H](O)CC(=O)[C@@H]2CCCCCCC(=O)OC)CCC1 [butaprost] | efficacious activators of the pathway | significantly increased by OT |  | significantly reduced | significant increase in all early stage labouring groups | not apparent in either late stage labouring group | maintained across non-labouring and labouring groups

Reference: patent publication US20230285347A1, “Preterm Labour with Prostaglandin E2 Receptor Agonists” (IMPERIAL COLLEGE INNOVATIONS LIMITED, priority 2020, published 2023)
